The values that follow come from patent publication US10098899B2, “Drug with activity against the herpes virus family” (priority 2010, dated 2018).

Assay [1] has as its system type I herpes simplex virus (strain EC). In words: Herpetic pneumonia in white mice: virus titer in lungs (titration on Vero cells). The format is in vivo, white non-pedigree mice. The settings on record: for Virus titer in lungs of mice on day 3 after the infection: day 3 after infection, 50 mg/kg intragastrically, 24 h and 1 h prior to and 24 h and 48 h after infection. As for the experimental part:
Antiviral activity of the inventive substance was determined using the model of pneumonia in white mice caused by type I herpes simplex virus.
Herpes simplex virus of type I (strain EC) was accumulated in Vero cells cultured in MEM medium with the addition of 0.2% bovine serum, 50 μg/ml of gentamicin. Virus titration was performed on Vero cells cultured in 96-well plates. Results were recorded after a pronounced cytopathic effect (CPE) appeared in virus control. The degree of intactness of the cellular monolayer was assessed visually, virus titer was calculated as the reciprocal value of Briggs logarithm of the largest dilution of the source material that is still able to produce visually notable manifestations of CPE in the cell culture (CTD50).
For assessing the virus inhibiting action of the preparations, white non-pedigree mice weighing 12-15 g (“Rappolovo” farm, Leningrad Region) were infected intranasally under a light ether anaesthesia with the herpes simplex virus in the dosage of 106 (CTD50)/0.05 ml. The preparation under study was administered intragastrically in the dosage of 50 mg/kg of weight according to a medical-preventive scheme (24 h and 1 h prior to infection, and 24 h and 48 h after the animals were infected). On day 3 the lungs of the infected animals were removed, homogenized in the presence of 10-fold volume of phosphate buffer and then 10-fold dilutions from 10-1 to 10-6 were prepared thereof. Dilutions of the lungs homogenate were used for infecting the intact culture of Vero cells and for titration of virus progeny. Positive reference was represented by lungs of mice that instead of the studied preparation received physiological solution by intragastric administration, whereas negative reference was represented by lungs of mice that received aciclovir in the dosage of 50 mg/kg of weight according to the same scheme. Each experimental group consisted of 10 animals.

Assay [2] shares this test system. Put plainly: Herpetic pneumonia in white mice: histologic (morphometric) examination of lungs. The format is in vivo, white non-pedigree mice.
In assay [3] the test system is Herpes virus of type I. Put plainly: Antiviral activity in Vero cells, unaltered cells, herpes virus of type I. In kind it is cell-based. The conditions noted are these: 50 mg/1 of preparation; for Number of unaltered cells: non-infected reference 10000. As for the experimental part:
(§1) Determining Activity Against Herpes Viruses of Type 1 and 11.
(§2) Herpes simplex virus (strain EC) was grown in Vero cells cultured in MEM medium with the addition of 0.2% bovine serum and 50 mg/1 of the preparations under study.

The test system of assay [4] is Herpes virus of type II. Put plainly: Antiviral activity in Vero cells, unaltered cells, herpes virus of type II. In kind it is cell-based. The conditions noted are these: for Number (%) of unaltered cells, percent / Number of unaltered cells: Herpes virus of type II, Vero cells, 50 mg/1 of preparation; for Number of unaltered cells: non-infected reference 10000. The protocol:
as §1, §2

Turning to `Nc1nc2c(ncn2COCCO)c(=O)[nH]1` [Aciclovir, 2-amino-1,9-dihydro-9-[(2-hydroxyethoxy)methyl]-6H-purine-6-on, reference compound], the “Virus titer in lungs of mice on day 3 after the infection” value in assay [1] came out at 1.4 ± 0.34 Lg CTD50. Besides, the “Area of an inflammation focus in section” value was determined as 55 ± 9.4 in assay [2] (term 2 days), 58 ± 14.7 in assay [2] (term 4 days) and 24 ± 6.4 in assay [2] (term 6 days). For the same molecule, the “Number of inflammation foci in one animal” value was determined as 8 in assay [2] (term 2 days), 3 in assay [2] (term 4 days) and 3 in assay [2] (term 6 days). Further, the “Number (%) of unaltered cells, percent” value is listed as “(65%)” in assay [3] and “(70%)” in assay [4]. The “Number of unaltered cells” value in assay [3] and in assay [4] was 7000 in each case.
Consider “(2,6-dichlorophenyl)amide salt of carbopentoxysulfanilic acid [The inventive substance]”, for which the “virus-inhibitory activity at the model of herpetic pneumonia in vivo (in words)” value in assay [1] (compared with aciclovir at the same dosage) is “statistically significant virus-inhibitory activity”. Also, in assay [1], the “Virus titer in lungs of mice on day 3 after the infection” value came out at 1.0 ± 0.11 Lg CTD50. Moreover, the “Area of an inflammation focus in section” value amounted to 47 ± 7.3 in assay [2] (term 2 days), 49 ± 12.1 in assay [2] (term 4 days) and 14 ± 5.5 in assay [2] (term 6 days). The “Number of inflammation foci in one animal” value is reported as 3 in assay [2] (term 2 days), 2 in assay [2] (term 4 days) and 1 in assay [2] (term 6 days). Also, the “Number (%) of unaltered cells, percent” value in assay [3] is “(80%)”; in assay [4], “(90%)”. Moreover, the “Number of unaltered cells” value in assay [3] amounted to 8000; in assay [4] it was 9000. Further, the “antiviral activity compared with aciclovir (in words)” value in assay [4] (in particular against the herpes virus of type II) was “significantly exceeds that of the aciclovir”.
